Each structure is given as a SMILES string. Entries after “also recorded” stand apart in the source; their conditions may differ.

For data set [1], the target named is T1, ERα protein (Homo sapiens, UniProt P03372).
T1 construct: These cells express the ER in functional form; endogenous in cells; host or cells: T47D breast cancer cells
T1 sequence (P03372 1-595): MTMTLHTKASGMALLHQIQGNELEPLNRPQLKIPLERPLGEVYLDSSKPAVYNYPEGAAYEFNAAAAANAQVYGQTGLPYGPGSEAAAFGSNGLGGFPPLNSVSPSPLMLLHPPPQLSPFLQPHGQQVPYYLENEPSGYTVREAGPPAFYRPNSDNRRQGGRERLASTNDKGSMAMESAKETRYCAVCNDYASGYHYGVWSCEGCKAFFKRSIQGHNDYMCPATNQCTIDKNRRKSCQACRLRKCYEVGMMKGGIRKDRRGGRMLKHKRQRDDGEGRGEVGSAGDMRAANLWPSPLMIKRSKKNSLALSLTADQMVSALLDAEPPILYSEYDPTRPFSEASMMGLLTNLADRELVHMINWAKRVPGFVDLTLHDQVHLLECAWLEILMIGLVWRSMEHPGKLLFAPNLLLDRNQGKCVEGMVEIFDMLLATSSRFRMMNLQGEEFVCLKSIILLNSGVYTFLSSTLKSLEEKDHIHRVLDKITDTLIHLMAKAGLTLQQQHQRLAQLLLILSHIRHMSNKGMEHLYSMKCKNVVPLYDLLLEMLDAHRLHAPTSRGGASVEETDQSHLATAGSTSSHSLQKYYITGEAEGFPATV
The data set can be described thus: Effect on stability of ERα protein in T47D breast cancer cells (ELISA). It counts as cell-based. Conditions: 24 hours, ER protein by ELISA. Here is the method: As well as inhibition of the transcriptional activity of the ER, anti-oestrogens influence the expression level of the ER in the target tissues through stimulation of the proteolytic degradation of the ER. In comparison with an ER-E2 complex, the ER bound in a complex with the pure anti-oestrogen fulvestrant has a substantially shorter half-life.
The effect of the claimed pharmacological compounds on the stability of the ER was analysed in T47D breast cancer cells (see Table 1, column Standardized ER-destabilization [%]). These cells express the ER in functional form. The cells are incubated for 24 hours with the claimed compounds at a concentration of 1 μM. After lysis of the cells, the content of ER protein was determined by ELISA. […] Compounds with ER content below 30% are classified as destabilizing.
As described, the claimed pharmacological substances were investigated for their action on the stability of the ERα protein (see Table 1).

The test system of data set [2] is peripheral cholesterol level. The data set can be described thus: Hepatic oestrogenicity in the ovariectomized adult rat (plasma cholesterol). It counts as in vivo. Conditions: ovariectomized adult rats, s.c. daily for 6 days; cholesterol day 0 vs day 8. An excerpt: Substances with oestrogenic action influence the synthesis of various plasma proteins, of coagulation factors and fibrinolytic factors in the liver. […] In the present investigations, lowering of the peripheral cholesterol level is used as a surrogate parameter for analysis of the hepatic oestrogenicity of the claimed pharmacological compounds. Adult ovariectomized rats were, after a pause of 6-10 days, treated daily for 6 days with the substances by subcutaneous application. The plasma cholesterol levels were determined and compared before and after the respective treatment.

Data set [3] has as its system uterus. Briefly: Oestrogenic action - uterus growth test in the infantile rat. The format is in vivo. The following applies: sc, 72 h, s.c. 3 days, maximum at dose 0.03 mg/kg, relative to E2 0.3 μg/animal, read-out: maximum uterotropic action (% estradiol action) in the dose range from 0.03 to 3 mg/kg. Here is the method:
Both the uterus and the vagina show a weight increase that is dependent on oestrogenic efficacy, in infantile animals when they are treated with a substance with oestrogenic action. In the uterus, under oestrogenic action there is also proliferation and increase in height of the luminal epithelium.
Immature, intact rats (n=5-6 animals/group; body weight 40-50 g) receive the substance s.c. for 3 days (d1-d3). On day 4 (d4) the animals are killed with CO2. The uteri are removed and weighed. For histological assessment, a piece of uterus, preferably a uterine horn, is fixed in formaldehyde and embedded in paraffin. The stimulation of the organ weights (relative to mg/100 g body weight) and the height of the epithelium are shown as percentage stimulation in comparison with the reference compound 17β-estradiol (E2). (Substitution dose of E2 0.3 μg/animal).

Data set [4] deals with trabecular bone density and uterus weight. The format is in vivo, rat. The following applies: adult ovariectomized rats, 56 days; compound 44 oral 1-10 mg/kg, effect already beginning with 1 mg/kg. Here is the method: 3-months-old female rats are ovariectomized and immediately after the operation they are treated with the test compound once daily for 56 days. Application is oral in peanut oil/ethanol. The animals are killed on the day after the last application and the tibia and the uteri are removed. The uteri are weighed, fixed and prepared for histological investigations. Bone density is determined ex vivo on prepared long bones by pQCT (peripheral quantitative computed tomography).
Ovariectomy leads to a decrease in density of the trabecular bone in the measured region. By treatment with a compound of general formula I according to the present invention (dosages of 1-10 mg/kg/day) the decline in bone density is prevented or inhibited. Bone density was measured on the proximal tibia.
The bone-protective action in adult ovariectomized female animals (rat) was investigated as described. […] The selected claimed pharmacological example compound 44 was applied orally at dosages from 1-10 mg/kg.

As to `C[C@]12CC[C@@H]3c4ccc(O)cc4C[C@@H](CCCCCCCCC[S+]([O-])CCCC(F)(F)C(F)(F)F)[C@H]3[C@@H]1CC[C@@H]2O` (stereo partly shown) [fulvestrant, reference compound], in data set [1], the “relative ERα content (% ER)” value is reported as 0%.
Turning to `O=C(c1ccc(OCCN2CCCCC2)cc1)c1c(-c2ccc(O)cc2)sc2cc(O)ccc12` [raloxifene, reference compound], the “hepatic oestrogenicity: lowering of the peripheral cholesterol level” value in data set [2] is “hepatic oestrogenicity at all dosages tested; also recorded: marked lowering of the cholesterol level at all dosages”. For the same molecule, the Emax at 0.03 mg/kg in data set [3] is 18%. Moreover, the “bone-protective action (trabecular bone mass density, tibia)” value in data set [4] is recorded as “marked bone protective action”.

Source of the values: patent US20130252890A1, “6,7-DIHYDRO-5H-BENZO[7]ANNULENE DERIVATIVES, PROCESS FOR PREPARATION THEREOF, PHARMACEUTICAL PREPARATIONS COMPRISING THEM, AND THE USE THEREOF FOR PRODUCTION OF MEDICAMENTS” (BAYER INTELLECTUAL PROPERTY GMBH, priority 2010, published 2013).
